Here are results for five molecules from US8349366B2, “Immediate release pharmaceutical granule compositions and a continuous process for making them” (Universiteit Gent, priority 2002, dated 2013).

For series [1] the following is noted: cited from earlier work.
For series [2] the following is noted: in vivo; cited from earlier work.
The conditions of series [3]: capsules with granulate formulation, surfactants, cyclodextrin, Avicel PH 101 and Primojel (U.S. Pat. No. 5,646,131, example 4); cited from earlier work.
Series [4] can be described thus: Drug dissolution test of extruded granules or pellets, paddles at 100 rpm, demineralized water, room temperature. The series is classed as physicochemical. Particulars: paddles 100 rpm. How it is done:
The extruded granules were collected, sieved and further analysed for drug dissolution (data shown in FIGS. 1 and 2, formulations B and D). The dissolution test was performed at room temperature by using paddles rotating at 100 rpm, the dissolution medium being demineralized water.

As for `CC/C(=C(/CC)c1ccc(O)cc1)c1ccc(O)cc1` [diethylstilbestrol], in series [1], the “solubility in water (in words)” value was “virtually insoluble in water”. Consider `CS(=O)(=O)c1ccc([C@@H](O)[C@@H](CF)NC(=O)C(Cl)Cl)cc1` [florfenicol, D-(threo)-1-p-methylsulfonyl phenyl-2-dichloroacetamido-3-fluoro-l-propanol], for which the oral bioavailability entry in series [2] is reported as “good oral bioavailability”. For the molecule `CC(C)(C)c1ccc(C(O)CCCN2CCC(C(O)(c3ccccc3)c3ccccc3)CC2)cc1` (stereo not drawn) [terfenadine], the water-solubility entry in series [1] is given as “less than 0.01 mg/ml”. For the same molecule, the “drug release within 45 minutes” value in series [3] is 90%. On to `Cn1c(=O)c2[nH]cnc2n(C)c1=O` [theophylline], for which the water-solubility in series [1] is 8000 µg/mL.

As to `COc1cc(Cc2cnc(N)nc2N)cc(OC)c1OC` [trimethoprim, 2,4-diamino-5-(3,4,5-trimethoxy-benzyl)pyrimidine], the “drug release after 30 minutes” value in series [4] was 38%.
